Test results reported in ChEMBL document CHEMBL3991601, “The target landscape of clinical kinase drugs” (Science, 2017).
Active and inactive are the calls of the source. For most assays here, no stated cut-off is given here; in the data, actives have a measured Kd and inactives only a lower limit.

What was measured:
[1] = target: Serine/threonine-protein kinase PAK 2 (Homo sapiens, UniProt Q13177)
Ephrin type-A receptor 4 = Ephrin type-A receptor 4 (Homo sapiens, UniProt P54764)
[2] = target: Serine/threonine-protein kinase 16 (Homo sapiens, UniProt O75716)
Sequence of Serine/threonine-protein kinase 16 (O75716 whole entry): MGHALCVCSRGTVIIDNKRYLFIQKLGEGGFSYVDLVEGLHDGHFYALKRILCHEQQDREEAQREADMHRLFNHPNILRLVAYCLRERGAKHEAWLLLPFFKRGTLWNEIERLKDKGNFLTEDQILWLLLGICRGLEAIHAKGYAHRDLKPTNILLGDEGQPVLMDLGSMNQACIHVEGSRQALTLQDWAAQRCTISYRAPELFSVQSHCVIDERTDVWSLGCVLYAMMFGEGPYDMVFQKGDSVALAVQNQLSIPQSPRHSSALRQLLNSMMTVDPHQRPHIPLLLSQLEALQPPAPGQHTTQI

[3] = target: Ribosomal protein S6 kinase alpha-6 (Homo sapiens, UniProt Q9UK32)
Sequence of Ribosomal protein S6 kinase alpha-6 (Q9UK32 whole entry): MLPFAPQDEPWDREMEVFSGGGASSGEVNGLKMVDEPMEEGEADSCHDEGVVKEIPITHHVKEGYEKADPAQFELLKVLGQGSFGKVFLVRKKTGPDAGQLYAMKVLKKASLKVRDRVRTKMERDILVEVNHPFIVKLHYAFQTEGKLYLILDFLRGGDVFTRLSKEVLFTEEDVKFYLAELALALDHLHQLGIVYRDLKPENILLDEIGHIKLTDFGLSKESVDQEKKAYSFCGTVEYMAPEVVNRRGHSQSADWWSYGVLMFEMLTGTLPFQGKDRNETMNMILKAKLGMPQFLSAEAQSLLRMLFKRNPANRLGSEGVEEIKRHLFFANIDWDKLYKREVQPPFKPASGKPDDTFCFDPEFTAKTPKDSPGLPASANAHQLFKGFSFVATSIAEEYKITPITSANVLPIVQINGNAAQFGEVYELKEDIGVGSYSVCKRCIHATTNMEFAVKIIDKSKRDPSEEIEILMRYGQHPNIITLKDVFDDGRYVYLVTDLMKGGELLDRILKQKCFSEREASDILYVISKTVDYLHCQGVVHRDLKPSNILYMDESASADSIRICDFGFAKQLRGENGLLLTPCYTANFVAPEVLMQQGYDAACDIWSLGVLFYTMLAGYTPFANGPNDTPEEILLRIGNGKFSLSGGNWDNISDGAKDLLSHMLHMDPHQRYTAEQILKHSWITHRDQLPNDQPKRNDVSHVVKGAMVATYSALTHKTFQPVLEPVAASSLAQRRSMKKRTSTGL

[4] = target: cAMP-dependent protein kinase catalytic subunit beta (Homo sapiens, UniProt P22694)
[5] = target: T1, RNA cytidine acetyltransferase (Homo sapiens, UniProt Q9H0A0)
T1 sequence (Q9H0A0 whole entry): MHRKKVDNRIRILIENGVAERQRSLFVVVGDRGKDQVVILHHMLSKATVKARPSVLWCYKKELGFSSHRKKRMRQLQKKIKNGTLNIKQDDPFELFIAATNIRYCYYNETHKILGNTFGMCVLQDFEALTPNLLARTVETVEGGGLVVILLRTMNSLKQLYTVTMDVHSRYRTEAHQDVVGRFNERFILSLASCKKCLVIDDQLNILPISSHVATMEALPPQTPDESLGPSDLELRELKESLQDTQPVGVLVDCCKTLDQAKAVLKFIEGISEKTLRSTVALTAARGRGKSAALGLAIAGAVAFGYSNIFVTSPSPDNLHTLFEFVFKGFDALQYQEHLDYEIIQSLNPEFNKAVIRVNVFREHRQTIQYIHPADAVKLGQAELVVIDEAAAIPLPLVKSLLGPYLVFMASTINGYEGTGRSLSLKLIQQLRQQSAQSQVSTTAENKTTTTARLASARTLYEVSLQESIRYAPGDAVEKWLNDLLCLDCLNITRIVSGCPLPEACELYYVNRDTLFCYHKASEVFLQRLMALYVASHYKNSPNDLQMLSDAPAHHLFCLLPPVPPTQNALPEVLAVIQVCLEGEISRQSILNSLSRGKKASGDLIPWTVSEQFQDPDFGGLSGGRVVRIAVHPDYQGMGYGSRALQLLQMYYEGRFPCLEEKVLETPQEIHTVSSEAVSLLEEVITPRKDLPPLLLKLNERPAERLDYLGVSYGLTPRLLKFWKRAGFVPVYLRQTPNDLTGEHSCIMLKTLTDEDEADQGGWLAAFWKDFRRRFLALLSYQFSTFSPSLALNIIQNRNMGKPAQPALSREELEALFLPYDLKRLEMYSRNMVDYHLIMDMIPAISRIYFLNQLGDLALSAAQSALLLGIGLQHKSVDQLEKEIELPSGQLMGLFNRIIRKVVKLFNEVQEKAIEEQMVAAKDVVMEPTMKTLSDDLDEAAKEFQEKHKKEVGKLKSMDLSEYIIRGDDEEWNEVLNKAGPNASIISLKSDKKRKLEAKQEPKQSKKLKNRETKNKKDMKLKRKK

Activated CDC42 kinase 1 = Activated CDC42 kinase 1 (Homo sapiens, UniProt Q07912)
Sequence of Activated CDC42 kinase 1 (Q07912 whole entry): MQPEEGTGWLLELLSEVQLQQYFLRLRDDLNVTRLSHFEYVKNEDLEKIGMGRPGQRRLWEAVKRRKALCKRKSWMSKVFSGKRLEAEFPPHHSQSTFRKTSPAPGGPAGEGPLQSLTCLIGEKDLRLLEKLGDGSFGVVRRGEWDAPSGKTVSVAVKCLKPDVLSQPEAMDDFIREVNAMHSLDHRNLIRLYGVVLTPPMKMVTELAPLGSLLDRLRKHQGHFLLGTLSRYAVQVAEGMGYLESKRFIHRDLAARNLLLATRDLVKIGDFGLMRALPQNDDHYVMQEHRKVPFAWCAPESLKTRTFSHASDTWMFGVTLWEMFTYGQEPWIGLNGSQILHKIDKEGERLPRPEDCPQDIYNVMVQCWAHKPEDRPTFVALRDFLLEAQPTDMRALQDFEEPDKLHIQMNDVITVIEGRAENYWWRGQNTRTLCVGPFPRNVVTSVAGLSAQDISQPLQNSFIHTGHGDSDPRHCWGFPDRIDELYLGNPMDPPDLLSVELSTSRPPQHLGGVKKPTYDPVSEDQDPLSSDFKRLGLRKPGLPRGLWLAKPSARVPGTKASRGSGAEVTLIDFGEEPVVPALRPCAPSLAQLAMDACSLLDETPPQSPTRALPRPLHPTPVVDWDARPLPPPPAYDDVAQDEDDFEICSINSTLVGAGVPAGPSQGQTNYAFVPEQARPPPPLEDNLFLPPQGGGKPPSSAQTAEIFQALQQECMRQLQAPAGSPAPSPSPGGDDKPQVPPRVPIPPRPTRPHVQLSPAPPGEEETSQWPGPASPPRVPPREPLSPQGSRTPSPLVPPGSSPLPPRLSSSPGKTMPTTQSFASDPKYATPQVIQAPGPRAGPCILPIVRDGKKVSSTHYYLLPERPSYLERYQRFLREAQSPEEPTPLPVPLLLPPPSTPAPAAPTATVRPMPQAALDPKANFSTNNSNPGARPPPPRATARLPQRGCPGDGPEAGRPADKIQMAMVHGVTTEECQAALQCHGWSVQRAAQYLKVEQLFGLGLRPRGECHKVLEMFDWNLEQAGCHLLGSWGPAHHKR

[6] = target: T2, Serine/threonine-protein kinase TAO3 (Homo sapiens, UniProt Q9H2K8)
T2 sequence (Q9H2K8 whole entry): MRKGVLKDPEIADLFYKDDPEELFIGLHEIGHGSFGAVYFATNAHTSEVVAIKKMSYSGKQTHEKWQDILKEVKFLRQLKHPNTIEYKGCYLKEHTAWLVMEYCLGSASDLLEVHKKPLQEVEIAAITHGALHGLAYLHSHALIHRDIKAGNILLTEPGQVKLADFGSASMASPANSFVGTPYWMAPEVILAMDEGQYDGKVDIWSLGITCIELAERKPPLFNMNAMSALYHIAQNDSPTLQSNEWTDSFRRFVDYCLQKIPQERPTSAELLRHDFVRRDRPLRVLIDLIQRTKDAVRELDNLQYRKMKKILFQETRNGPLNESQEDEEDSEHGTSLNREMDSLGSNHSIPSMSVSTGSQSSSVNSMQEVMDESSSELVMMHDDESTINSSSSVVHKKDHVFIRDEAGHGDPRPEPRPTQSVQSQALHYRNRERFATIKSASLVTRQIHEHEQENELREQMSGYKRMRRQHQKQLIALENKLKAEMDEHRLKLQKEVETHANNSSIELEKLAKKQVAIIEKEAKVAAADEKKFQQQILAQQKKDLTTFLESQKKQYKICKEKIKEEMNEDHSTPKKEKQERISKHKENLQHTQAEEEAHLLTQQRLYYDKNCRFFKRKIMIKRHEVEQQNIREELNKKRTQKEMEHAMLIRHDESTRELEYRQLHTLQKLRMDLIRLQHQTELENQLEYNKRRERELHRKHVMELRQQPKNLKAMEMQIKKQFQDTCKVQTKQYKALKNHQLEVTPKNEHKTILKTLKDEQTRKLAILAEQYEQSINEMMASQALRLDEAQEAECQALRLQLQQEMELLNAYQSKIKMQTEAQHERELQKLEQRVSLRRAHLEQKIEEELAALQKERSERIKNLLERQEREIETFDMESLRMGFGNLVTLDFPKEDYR

[7] = target: T3, Dual specificity mitogen-activated protein kinase kinase 5 (Homo sapiens, UniProt Q13163)
T3 sequence (Q13163 whole entry): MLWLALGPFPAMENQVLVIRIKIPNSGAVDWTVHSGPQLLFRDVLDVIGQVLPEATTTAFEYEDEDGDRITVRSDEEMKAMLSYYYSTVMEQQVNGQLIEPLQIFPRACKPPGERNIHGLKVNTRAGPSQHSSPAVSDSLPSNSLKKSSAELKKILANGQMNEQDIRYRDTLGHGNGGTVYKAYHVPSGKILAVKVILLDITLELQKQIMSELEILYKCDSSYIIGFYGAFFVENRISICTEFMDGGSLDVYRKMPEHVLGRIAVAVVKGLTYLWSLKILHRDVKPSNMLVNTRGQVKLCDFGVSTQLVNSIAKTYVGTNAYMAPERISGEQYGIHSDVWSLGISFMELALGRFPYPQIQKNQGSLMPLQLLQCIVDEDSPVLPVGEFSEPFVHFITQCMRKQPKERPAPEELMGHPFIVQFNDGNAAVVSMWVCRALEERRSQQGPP

[8] = target: Mitogen-activated protein kinase kinase kinase 4 (Homo sapiens, UniProt Q9Y6R4)
[9] = target: Serine/threonine-protein kinase B-raf (Homo sapiens, UniProt P15056)
Sequence of Serine/threonine-protein kinase B-raf (P15056 whole entry): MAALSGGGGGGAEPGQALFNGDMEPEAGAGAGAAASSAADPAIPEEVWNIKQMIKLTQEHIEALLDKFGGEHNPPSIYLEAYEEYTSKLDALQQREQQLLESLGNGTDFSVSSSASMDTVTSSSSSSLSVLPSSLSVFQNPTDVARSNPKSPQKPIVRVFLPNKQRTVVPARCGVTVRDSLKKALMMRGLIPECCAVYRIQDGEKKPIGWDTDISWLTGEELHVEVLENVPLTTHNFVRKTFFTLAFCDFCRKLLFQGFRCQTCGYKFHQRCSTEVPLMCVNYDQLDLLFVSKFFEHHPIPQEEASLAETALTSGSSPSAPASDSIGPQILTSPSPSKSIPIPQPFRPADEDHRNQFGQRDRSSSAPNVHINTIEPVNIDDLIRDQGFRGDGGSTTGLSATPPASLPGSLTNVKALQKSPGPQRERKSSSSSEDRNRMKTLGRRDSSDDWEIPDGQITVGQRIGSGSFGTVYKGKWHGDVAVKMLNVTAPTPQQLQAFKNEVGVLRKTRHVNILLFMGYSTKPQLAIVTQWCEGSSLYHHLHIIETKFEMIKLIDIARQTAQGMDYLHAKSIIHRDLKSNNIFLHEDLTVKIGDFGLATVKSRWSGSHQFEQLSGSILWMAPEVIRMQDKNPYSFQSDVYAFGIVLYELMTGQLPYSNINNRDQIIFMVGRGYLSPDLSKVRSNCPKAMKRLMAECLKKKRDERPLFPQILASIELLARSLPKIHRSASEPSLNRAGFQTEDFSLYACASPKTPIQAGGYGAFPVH

Ephrin type-A receptor 2 = Ephrin type-A receptor 2 (Homo sapiens, UniProt P29317)
Sequence of Ephrin type-A receptor 2 (P29317 whole entry): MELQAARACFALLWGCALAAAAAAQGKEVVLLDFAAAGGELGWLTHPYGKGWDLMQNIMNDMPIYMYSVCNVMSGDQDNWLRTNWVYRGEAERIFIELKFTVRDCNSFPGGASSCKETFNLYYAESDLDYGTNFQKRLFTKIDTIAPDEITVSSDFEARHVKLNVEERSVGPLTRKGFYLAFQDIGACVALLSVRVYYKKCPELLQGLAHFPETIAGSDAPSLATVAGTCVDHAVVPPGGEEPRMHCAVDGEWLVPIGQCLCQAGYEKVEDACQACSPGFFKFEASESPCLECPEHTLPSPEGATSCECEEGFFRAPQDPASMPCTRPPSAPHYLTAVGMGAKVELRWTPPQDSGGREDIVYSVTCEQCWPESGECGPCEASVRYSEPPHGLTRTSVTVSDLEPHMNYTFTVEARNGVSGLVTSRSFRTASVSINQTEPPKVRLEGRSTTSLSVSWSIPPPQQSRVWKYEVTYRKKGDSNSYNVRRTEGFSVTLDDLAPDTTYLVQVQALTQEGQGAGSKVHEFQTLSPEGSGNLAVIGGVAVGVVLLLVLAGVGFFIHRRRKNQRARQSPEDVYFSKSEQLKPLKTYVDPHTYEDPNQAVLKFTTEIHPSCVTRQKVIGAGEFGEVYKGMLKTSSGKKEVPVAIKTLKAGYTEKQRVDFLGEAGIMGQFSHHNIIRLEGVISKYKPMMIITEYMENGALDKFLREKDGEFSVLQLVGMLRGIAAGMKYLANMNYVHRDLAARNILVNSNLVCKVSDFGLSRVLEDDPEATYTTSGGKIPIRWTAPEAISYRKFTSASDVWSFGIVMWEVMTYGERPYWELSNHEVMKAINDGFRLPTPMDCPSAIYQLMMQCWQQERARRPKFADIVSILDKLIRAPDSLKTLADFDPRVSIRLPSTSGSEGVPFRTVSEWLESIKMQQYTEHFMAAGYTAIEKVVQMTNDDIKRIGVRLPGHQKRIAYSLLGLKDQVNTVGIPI

[10] = target: Calcium/calmodulin-dependent protein kinase kinase 2 (Homo sapiens, UniProt Q96RR4)
Sequence of Calcium/calmodulin-dependent protein kinase kinase 2 (Q96RR4 whole entry): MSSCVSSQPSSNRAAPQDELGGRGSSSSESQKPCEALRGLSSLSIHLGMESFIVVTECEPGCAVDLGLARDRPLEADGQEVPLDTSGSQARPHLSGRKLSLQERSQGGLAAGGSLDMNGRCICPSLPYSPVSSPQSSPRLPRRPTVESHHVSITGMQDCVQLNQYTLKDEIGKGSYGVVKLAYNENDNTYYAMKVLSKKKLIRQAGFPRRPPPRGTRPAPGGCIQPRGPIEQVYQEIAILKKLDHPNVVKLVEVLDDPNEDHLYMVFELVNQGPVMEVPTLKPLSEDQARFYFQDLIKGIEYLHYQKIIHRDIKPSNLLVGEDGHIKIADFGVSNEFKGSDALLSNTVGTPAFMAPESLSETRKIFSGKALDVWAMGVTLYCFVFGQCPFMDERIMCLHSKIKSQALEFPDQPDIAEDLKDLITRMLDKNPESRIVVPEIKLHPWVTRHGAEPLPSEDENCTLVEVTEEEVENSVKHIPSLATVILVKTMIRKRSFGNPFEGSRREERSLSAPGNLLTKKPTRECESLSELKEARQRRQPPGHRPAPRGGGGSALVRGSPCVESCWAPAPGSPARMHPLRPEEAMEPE

Adenosine kinase = Adenosine kinase (Homo sapiens, UniProt P55263)
Sequence of Adenosine kinase (P55263 whole entry): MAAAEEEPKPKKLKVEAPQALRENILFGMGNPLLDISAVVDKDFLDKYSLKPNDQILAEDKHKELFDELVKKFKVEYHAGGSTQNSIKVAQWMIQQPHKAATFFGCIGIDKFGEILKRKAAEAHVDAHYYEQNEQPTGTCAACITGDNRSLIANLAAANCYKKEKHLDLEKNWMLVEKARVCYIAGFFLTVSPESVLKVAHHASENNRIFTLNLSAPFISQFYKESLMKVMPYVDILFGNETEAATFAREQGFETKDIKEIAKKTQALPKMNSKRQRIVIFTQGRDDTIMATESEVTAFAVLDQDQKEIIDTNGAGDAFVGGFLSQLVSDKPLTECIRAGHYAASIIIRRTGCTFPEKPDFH

Kd [1]	Kd (Ephrin type-A receptor 4)	Kd [2]	Kd [3]	Kd [4]	Kd [5]	Kd (Activated CDC42 kinase 1)	Kd [6]	Kd [7]	Kd [8]	Kd [9]	Kd (Ephrin type-A receptor 2)	Kd [10]	Kd (Adenosine kinase)	SMILES
> 30 µM (inactive)	> 30 µM (inactive)	> 30 µM (inactive)	> 30 µM (inactive)	0.211 µM (active)	> 30 µM (inactive)	> 30 µM (inactive)	> 30 µM (inactive)	> 30 µM (inactive)	> 30 µM (inactive)	> 30 µM (inactive)	> 30 µM (inactive)	> 30 µM (inactive)	–	Cn1ncc(Cl)c1-c1cc(C(=O)N[C@H](CN)Cc2cccc(F)c2)sc1Cl [AFURESERTIB]
> 30 µM (inactive)	> 30 µM (inactive)	> 30 µM (inactive)	> 30 µM (inactive)	> 30 µM (inactive)	> 30 µM (inactive)	0.473 µM (active)	> 30 µM (inactive)	> 30 µM (inactive)	> 30 µM (inactive)	> 30 µM (inactive)	–	> 30 µM (inactive)	> 30 µM (inactive)	O=C(O)[C@]1(Cc2cccc(Nc3nccs3)n2)CC[C@@H](Oc2cccc(Cl)c2F)CC1 [MK-5108]
–	> 30 µM (inactive)	> 30 µM (inactive)	> 30 µM (inactive)	> 30 µM (inactive)	> 30 µM (inactive)	> 30 µM (inactive)	> 30 µM (inactive)	> 30 µM (inactive)	> 30 µM (inactive)	> 30 µM (inactive)	> 30 µM (inactive)	> 30 µM (inactive)	> 30 µM (inactive)	C[C@@H](Nc1cc(F)cc(F)c1)c1cc(C(=O)N(C)C)cc2c(=O)cc(N3CCOCC3)oc12 [AZD-8186]
–	> 30 µM (inactive)	1.87 µM (active)	> 30 µM (inactive)	> 30 µM (inactive)	> 30 µM (inactive)	9.33 µM (active)	> 30 µM (inactive)	> 30 µM (inactive)	> 30 µM (inactive)	> 30 µM (inactive)	> 30 µM (inactive)	7.69 µM (active)	> 30 µM (inactive)	C1=C/COCc2cc(ccc2OCCN2CCCC2)Nc2nccc(n2)-c2cccc(c2)COC/1 [PACRITINIB]
–	> 30 µM (inactive)	> 30 µM (inactive)	> 30 µM (inactive)	> 30 µM (inactive)	> 30 µM (inactive)	0.005 µM (active)	> 30 µM (inactive)	> 30 µM (inactive)	> 30 µM (inactive)	> 30 µM (inactive)	1.25 µM (active)	9.13 µM (active)	–	COc1cc(N2CCC(N3CCN(C)CC3)CC2)ccc1Nc1ncnc(Nc2ccccc2S(=O)(=O)C(C)C)n1 [ASP-3026]
> 30 µM (inactive)	5.56 µM (active)	> 30 µM (inactive)	> 30 µM (inactive)	> 30 µM (inactive)	> 30 µM (inactive)	> 30 µM (inactive)	> 30 µM (inactive)	> 30 µM (inactive)	> 30 µM (inactive)	–	0.147 µM (active)	> 30 µM (inactive)	> 30 µM (inactive)	COc1cc2nccc(Oc3ccc(NC(=O)Nc4cc(C)on4)c(Cl)c3)c2cc1OC [TIVOZANIB]
–	> 30 µM (inactive)	> 30 µM (inactive)	> 30 µM (inactive)	> 30 µM (inactive)	> 30 µM (inactive)	> 30 µM (inactive)	> 30 µM (inactive)	> 30 µM (inactive)	> 30 µM (inactive)	> 30 µM (inactive)	> 30 µM (inactive)	> 30 µM (inactive)	> 30 µM (inactive)	Cn1cc(-c2ccc(F)c(C(F)(F)F)c2)nc1C1CCN(c2ncnc3[nH]ncc23)CC1 [LY-2584702]
> 30 µM (inactive)	> 30 µM (inactive)	> 30 µM (inactive)	> 30 µM (inactive)	> 30 µM (inactive)	> 30 µM (inactive)	> 30 µM (inactive)	> 30 µM (inactive)	> 30 µM (inactive)	> 30 µM (inactive)	> 30 µM (inactive)	> 30 µM (inactive)	> 30 µM (inactive)	–	O=C1NC(=O)/C(=C/c2ccc3nccc(-c4ccncc4)c3c2)S1 [GSK-1059615]
–	> 30 µM (inactive)	> 30 µM (inactive)	> 30 µM (inactive)	> 30 µM (inactive)	> 30 µM (inactive)	> 30 µM (inactive)	> 30 µM (inactive)	> 30 µM (inactive)	> 30 µM (inactive)	> 30 µM (inactive)	> 30 µM (inactive)	> 30 µM (inactive)	> 30 µM (inactive)	Cc1c(F)cc(C(=O)NC2CC2)cc1-c1ccc(C(=O)NCC(C)(C)C)cn1 [LOSMAPIMOD]

SMILES	Kd [1]	Kd (Ephrin type-A receptor 4)	Kd [2]	Kd [3]	Kd [4]	Kd [5]	Kd (Activated CDC42 kinase 1)	Kd [6]	Kd [7]	Kd [8]	Kd [9]	Kd (Ephrin type-A receptor 2)	Kd [10]	Kd (Adenosine kinase)
Cc1cc(-c2cc(O)ccc2Cl)cc2nnc(Nc3ccc(OCCN4CCCC4)cc3)nc12	> 30 µM (inactive)	0.002 µM (active)	> 30 µM (inactive)	> 30 µM (inactive)	> 30 µM (inactive)	> 30 µM (inactive)	> 30 µM (inactive)	> 30 µM (inactive)	> 30 µM (inactive)	> 30 µM (inactive)	0.003 µM (active)	0.001 µM (active)	> 30 µM (inactive)	> 30 µM (inactive)
O=C(c1ccc(F)c(F)c1Nc1ccc(I)cc1F)N1CC(O)([C@@H]2CCCCN2)C1 [COBIMETINIB]	> 30 µM (inactive)	> 30 µM (inactive)	> 30 µM (inactive)	> 30 µM (inactive)	> 30 µM (inactive)	> 30 µM (inactive)	> 30 µM (inactive)	> 30 µM (inactive)	> 30 µM (inactive)	> 30 µM (inactive)	> 30 µM (inactive)	> 30 µM (inactive)	> 30 µM (inactive)	–
